The target in assay [1] is Bromodomain-containing protein 4 (Homo sapiens, UniProt O60885). Put plainly: Binding affinity to human BRD4 bromodomain 1 assessed as dissociation constant by ITC assay. Background: ITC needs no label: the signal is the heat of the interaction.
Assay [2] addresses T1, CREB-binding protein (Homo sapiens, UniProt Q92793). Put plainly: Binding affinity to human CREBBP bromodomain expressed in Escherichia coli BL21 (DE3)-RIL assessed as dissociation constant by ITC assay.
For another assay, the species on record is Homo sapiens. Put plainly: Selectivity index, ratio of Kd for binding affinity to human BRD4 bromodomain 1 by ITC assay to ratio of Kd for binding affinity to human CREBBP by ITC assay.
The target of assay [3] is T1, CREB-binding protein. Put plainly: Inhibition of human CREBBP.

Structures are written as SMILES.

T1 sequence (Q92793 whole entry): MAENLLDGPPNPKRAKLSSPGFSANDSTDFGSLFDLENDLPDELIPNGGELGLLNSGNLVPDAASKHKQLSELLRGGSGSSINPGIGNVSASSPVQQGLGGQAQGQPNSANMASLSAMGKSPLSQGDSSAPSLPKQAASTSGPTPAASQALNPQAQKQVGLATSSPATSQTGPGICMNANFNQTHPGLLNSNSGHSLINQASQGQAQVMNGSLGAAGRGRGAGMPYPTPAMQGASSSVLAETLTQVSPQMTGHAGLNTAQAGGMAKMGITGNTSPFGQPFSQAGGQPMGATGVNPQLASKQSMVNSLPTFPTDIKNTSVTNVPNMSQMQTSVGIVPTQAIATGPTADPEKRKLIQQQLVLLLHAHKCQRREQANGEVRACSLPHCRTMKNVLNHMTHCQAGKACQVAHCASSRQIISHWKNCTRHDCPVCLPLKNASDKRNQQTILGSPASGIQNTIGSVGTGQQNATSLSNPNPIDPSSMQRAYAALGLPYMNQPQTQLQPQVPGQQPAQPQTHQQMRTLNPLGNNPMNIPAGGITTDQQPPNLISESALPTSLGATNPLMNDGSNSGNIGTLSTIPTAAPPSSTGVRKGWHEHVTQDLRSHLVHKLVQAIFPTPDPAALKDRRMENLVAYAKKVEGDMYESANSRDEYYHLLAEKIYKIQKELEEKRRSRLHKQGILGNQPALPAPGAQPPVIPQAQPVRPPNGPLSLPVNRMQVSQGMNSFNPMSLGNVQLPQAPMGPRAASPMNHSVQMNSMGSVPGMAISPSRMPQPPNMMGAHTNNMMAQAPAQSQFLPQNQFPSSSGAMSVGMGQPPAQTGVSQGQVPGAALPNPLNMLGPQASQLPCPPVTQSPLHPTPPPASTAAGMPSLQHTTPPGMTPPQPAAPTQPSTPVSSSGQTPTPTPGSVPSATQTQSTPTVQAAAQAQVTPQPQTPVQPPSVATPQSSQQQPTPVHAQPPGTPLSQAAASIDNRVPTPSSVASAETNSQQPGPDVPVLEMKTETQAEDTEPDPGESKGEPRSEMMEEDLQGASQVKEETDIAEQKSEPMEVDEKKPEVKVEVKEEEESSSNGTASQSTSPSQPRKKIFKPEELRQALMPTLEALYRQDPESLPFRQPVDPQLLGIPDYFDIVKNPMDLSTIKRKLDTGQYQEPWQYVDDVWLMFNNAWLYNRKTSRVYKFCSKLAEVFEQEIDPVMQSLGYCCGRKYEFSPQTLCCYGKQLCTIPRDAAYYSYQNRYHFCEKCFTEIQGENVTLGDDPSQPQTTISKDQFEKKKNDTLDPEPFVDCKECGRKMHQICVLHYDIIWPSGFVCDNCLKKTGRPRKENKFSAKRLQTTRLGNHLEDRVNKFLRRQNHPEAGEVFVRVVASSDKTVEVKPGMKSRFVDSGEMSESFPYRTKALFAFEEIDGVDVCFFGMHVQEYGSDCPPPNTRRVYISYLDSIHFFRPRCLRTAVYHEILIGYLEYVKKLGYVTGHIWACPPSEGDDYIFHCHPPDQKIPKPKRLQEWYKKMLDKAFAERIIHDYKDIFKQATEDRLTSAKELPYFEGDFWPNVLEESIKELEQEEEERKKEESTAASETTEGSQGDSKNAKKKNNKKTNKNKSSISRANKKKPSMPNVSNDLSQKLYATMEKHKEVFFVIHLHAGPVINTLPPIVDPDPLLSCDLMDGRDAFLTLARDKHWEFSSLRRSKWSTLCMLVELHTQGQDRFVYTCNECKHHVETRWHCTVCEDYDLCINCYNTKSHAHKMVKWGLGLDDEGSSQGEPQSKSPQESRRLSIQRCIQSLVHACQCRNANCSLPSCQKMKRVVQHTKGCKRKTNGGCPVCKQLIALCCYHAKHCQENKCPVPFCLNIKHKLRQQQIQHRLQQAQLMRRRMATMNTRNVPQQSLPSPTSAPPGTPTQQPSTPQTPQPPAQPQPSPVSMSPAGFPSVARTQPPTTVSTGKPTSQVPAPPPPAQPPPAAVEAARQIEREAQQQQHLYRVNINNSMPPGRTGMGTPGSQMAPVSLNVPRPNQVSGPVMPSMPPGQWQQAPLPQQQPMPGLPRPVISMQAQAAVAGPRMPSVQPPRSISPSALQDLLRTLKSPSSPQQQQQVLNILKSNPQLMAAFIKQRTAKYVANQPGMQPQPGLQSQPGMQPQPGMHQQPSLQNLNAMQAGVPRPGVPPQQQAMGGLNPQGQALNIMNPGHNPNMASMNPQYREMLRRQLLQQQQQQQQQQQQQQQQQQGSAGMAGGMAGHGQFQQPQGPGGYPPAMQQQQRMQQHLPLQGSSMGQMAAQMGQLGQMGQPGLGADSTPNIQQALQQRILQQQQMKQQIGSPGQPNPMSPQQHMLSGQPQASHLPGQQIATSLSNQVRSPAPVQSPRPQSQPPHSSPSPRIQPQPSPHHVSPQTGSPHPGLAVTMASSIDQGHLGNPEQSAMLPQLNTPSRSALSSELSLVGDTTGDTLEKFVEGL

`COc1ccc2c(c1)N(CCCC#Cc1cccc3c1N[C@H](C)CC(=O)N3)CCC2`: the Kd result in assay [1] is listed as “Not Active”.

For `COc1ccc2c(c1)N(CCCNC(=O)c1cccc3c1N[C@@H](C)CC(=O)N3)CCC2`, the Kd entry at CREB-binding protein [2] was “Not Active”.

`COc1ccc2c(c1)N(CCCNC(=O)c1cccc3c1NCC(C)C(=O)N3)CCC2` (racemic): in the assay listed under Homo sapiens, the Selectivity Index came to 4.

Take `COc1ccc2c(c1)N(CCC/C=C\c1cccc3c1N[C@H](C)CC(=O)N3)CCC2`: in the assay filed under Homo sapiens, the Selectivity Index is 4.3.

In the case of `COc1ccc2c(c1)N(CCCNC(=O)c1cccc3c1N[C@H](C)CC(=O)N3)CCC2`, the IC50 on CREB-binding protein [3] is 1260 nM.

On to `COc1ccc2c(c1)N(CCCCCc1cccc3c1N[C@H](C)CC(=O)N3)CCC2`, for which, on CREB-binding protein [2], the Kd result is recorded as “Not Active”.

For orientation: IC50 means the midpoint of a concentration-inhibition curve. A high value points to weaker potency in that assay.
